Experimental data from the NIST ThermoML archive (doi:10.1016/j.fluid.2015.06.045).
Where “and” joins values, the source holds several entries; their conditions need not be identical. Equal values may be shown once. Numbers after ± are expanded uncertainties.

Legend:
[1] = molar heat capacity at constant pressure
[2] = Closed cell (Static) method

CN1CCCC1=O [N-methylpyrrolidone]
[1], 100 kPa, Ideal gas
Details | molar heat capacity at constant pressure [J/K/mol]
100 K | 59.31 ± 3
150 K | 72.28 ± 3.6
200 K | 85.04 ± 4.2
250 K | 99.6 ± 5
273.15 K | 106.98 ± 5.3
298.15 K | 115.26 ± 5.8
300 K | 115.89 ± 5.8
400 K | 149.87 ± 7.5
500 K | 180.98 ± 9.1
600 K | 207.43 ± 10
700 K | 229.6 ± 11
800 K | 248.26 ± 12
900 K | 264.08 ± 13
1000 K | 277.55 ± 14

[1], 101.33 kPa, Liquid, Large sample (1 g) DSC
Details | molar heat capacity at constant pressure
265.75 K | 168.2 ± 2.9 J/K/mol and 168.12 ± 2.9 J/K/mol
270.85 K | 169.2 ± 2.9 J/K/mol and 169.03 ± 2.9 J/K/mol
275.96 K | 169.62 ± 2.9 J/K/mol and 169.86 ± 2.9 J/K/mol
281.07 K | 170.95 ± 3 J/K/mol and 170.78 ± 3 J/K/mol
286.17 K | 171.86 ± 3 J/K/mol
291.28 K | 173.36 ± 3 J/K/mol and 172.86 ± 3 J/K/mol
296.38 K | 173.94 ± 3 J/K/mol and 174.27 ± 3 J/K/mol
301.49 K | 175.35 ± 3.1 J/K/mol and 175.52 ± 3.1 J/K/mol
306.59 K | 176.52 ± 3.1 J/K/mol
311.69 K | 177.93 ± 3.1 J/K/mol and 177.85 ± 3.1 J/K/mol
316.8 K | 178.93 ± 3.1 J/K/mol and 179.09 ± 3.1 J/K/mol
321.9 K | 180.01 ± 3.2 J/K/mol and 180.42 ± 3.2 J/K/mol
327.01 K | 181.84 ± 3.2 J/K/mol and 181.75 ± 3.2 J/K/mol
332.12 K | 183.25 ± 3.2 J/K/mol
337.22 K | 184.41 ± 3.2 J/K/mol and 184.66 ± 3.2 J/K/mol
342.33 K | 185.75 ± 3.2 J/K/mol and 186.16 ± 3.2 J/K/mol
347.43 K | 187.24 ± 3.2 J/K/mol
352.54 K | 188.57 ± 3.2 J/K/mol and 188.82 ± 3.2 J/K/mol

[2], Liquid
Details | vapor or sublimation pressure
273.65 K | 0.00631 ± 0.00016 kPa and 0.0063 ± 0.00016 kPa
278.15 K | 0.0094 ± 0.00019 kPa and 0.00937 ± 0.00019 kPa and 0.00938 ± 0.00019 kPa
283.15 K | 0.01432 ± 0.00024 kPa
288.15 K | 0.02159 ± 0.00032 kPa and 0.02162 ± 0.00032 kPa
293.15 K | 0.03193 ± 0.00042 kPa and 0.03195 ± 0.00042 kPa and 0.03196 ± 0.00042 kPa
298.15 K | 0.04664 ± 0.00057 kPa and 0.04665 ± 0.00057 kPa and 0.0466 ± 0.00057 kPa
303.15 K | 0.06708 ± 0.00077 kPa and 0.06709 ± 0.00077 kPa
308.15 K | 0.09518 ± 0.001 kPa and 0.09516 ± 0.001 kPa
308.17 K | 0.0951 ± 0.001 kPa

NCCO [2-aminoethan-1-ol]
[1], 100 kPa, Ideal gas
Details | molar heat capacity at constant pressure [J/K/mol]
100 K | 42.58 ± 2.1
150 K | 53.66 ± 2.7
200 K | 64.26 ± 3.2
250 K | 74.41 ± 3.7
273.15 K | 79.16 ± 4
298.15 K | 84.38 ± 4.2
300 K | 84.78 ± 4.2
400 K | 106.54 ± 5.3
500 K | 127.9 ± 6.4
600 K | 146.98 ± 7.3
700 K | 163.08 ± 8.2
800 K | 176.25 ± 8.8
900 K | 186.86 ± 9.3
1000 K | 195.39 ± 9.8

[1], 101.33 kPa, Metastable liquid, Large sample (1 g) DSC
Details | molar heat capacity at constant pressure
265.75 K | 160.55 ± 2.7 J/K/mol
270.85 K | 161.8 ± 2.8 J/K/mol
275.96 K | 162.46 ± 2.8 J/K/mol
281.07 K | 163.71 ± 2.8 J/K/mol
286.17 K | 164.54 ± 2.8 J/K/mol
291.28 K | 165.54 ± 2.8 J/K/mol and 165.87 ± 2.9 J/K/mol
296.38 K | 166.54 ± 2.9 J/K/mol and 167.29 ± 2.9 J/K/mol
301.49 K | 168.12 ± 2.9 J/K/mol and 167.79 ± 2.9 J/K/mol
306.59 K | 169.2 ± 2.9 J/K/mol and 169.12 ± 2.9 J/K/mol
311.69 K | 170.28 ± 2.9 J/K/mol and 170.53 ± 3 J/K/mol
316.8 K | 171.36 ± 3 J/K/mol and 171.69 ± 3 J/K/mol
321.9 K | 172.61 ± 3 J/K/mol and 173.11 ± 3 J/K/mol
327.01 K | 174.1 ± 3 J/K/mol and 174.27 ± 3 J/K/mol
332.12 K | 175.68 ± 3.1 J/K/mol and 175.35 ± 3.1 J/K/mol
337.22 K | 176.68 ± 3.1 J/K/mol and 177.18 ± 3.1 J/K/mol
342.33 K | 178.1 ± 3.1 J/K/mol and 178.59 ± 3.1 J/K/mol
347.43 K | 179.51 ± 3.1 J/K/mol and 179.43 ± 3.1 J/K/mol
352.54 K | 181.26 ± 3.2 J/K/mol and 181.34 ± 3.2 J/K/mol

vapor or sublimation pressure, [2]
Details | Crystal | Metastable liquid
258.17 K | 0.00078 ± 0.00011 kPa and 0.00077 ± 0.00011 kPa and 0.00076 ± 0.00011 kPa | –
263.17 K | 0.00142 ± 0.00011 kPa | –
268.17 K | 0.00264 ± 0.00013 kPa and 0.00265 ± 0.00013 kPa | –
273.65 K | 0.0052 ± 0.00015 kPa and 0.00519 ± 0.00015 kPa and 0.00518 ± 0.00015 kPa | 0.00646 ± 0.00016 kPa
275.65 K | 0.00658 ± 0.00017 kPa | 0.00785 ± 0.00018 kPa
278.15 K | 0.00883 ± 0.00019 kPa and 0.00884 ± 0.00019 kPa | 0.00997 ± 0.0002 kPa and 0.00998 ± 0.0002 kPa
280.65 K | 0.01183 ± 0.00022 kPa and 0.01185 ± 0.00022 kPa | 0.01262 ± 0.00023 kPa and 0.01263 ± 0.00023 kPa
283.15 K | 0.01576 ± 0.00026 kPa and 0.01575 ± 0.00026 kPa | 0.0159 ± 0.00026 kPa and 0.01591 ± 0.00026 kPa and 0.01587 ± 0.00026 kPa
285.65 K | – | 0.0199 ± 0.0003 kPa and 0.01992 ± 0.0003 kPa
288.15 K | – | 0.02494 ± 0.00035 kPa and 0.02505 ± 0.00035 kPa and 0.02501 ± 0.00035 kPa
290.65 K | – | 0.03092 ± 0.00041 kPa and 0.03099 ± 0.00041 kPa
293.15 K | – | 0.03842 ± 0.00048 kPa and 0.03848 ± 0.00048 kPa and 0.03849 ± 0.00048 kPa
295.65 K | – | 0.04735 ± 0.00057 kPa and 0.04742 ± 0.00057 kPa and 0.04744 ± 0.00057 kPa
298.15 K | – | 0.05877 ± 0.00069 kPa and 0.05861 ± 0.00069 kPa and 0.05859 ± 0.00069 kPa
300.65 K | – | 0.07124 ± 0.00081 kPa and 0.07125 ± 0.00081 kPa and 0.07143 ± 0.00081 kPa
303.15 K | – | 0.08725 ± 0.00097 kPa and 0.08736 ± 0.00097 kPa
303.16 K | – | 0.08722 ± 0.00097 kPa
